In article PMC12036814 (Angewandte Chemie (International Ed. in English), 2025):

Legend:
NUDT1 = NUDT1 (Homo sapiens, UniProt P36639); assay: NUDT1 in vitro activity assay (malachite green); type: biochemical; design: Full length NUDT1 gene synthesis; N-terminal His tag with thrombin site from pET28a(+) (NdeI/XhoI) (N, cleaved yes); made in house; host or cells: E. coli BL21 (DE3); settings: 100 μM
[1] = tested on: HEK‐293 and PDL‐hTERT cells; assay: MTT assay, relative metabolic activity after 3 days; type: cell-based, human; settings: 3 days of treatment
Description: Methods and Experimental Procedures
(Alfa Aesar, Haverhill, USA, Cat# J66943 ) stocks were prepared in sterile -filtered 0.1 N HCl to a
maximum concentration of 50 mM. HCl was used as vehicle control, diluted in culture medium, and
Cell culture experiments were performed in HEK 293, A549 or PDL-hTERT cells1 cultured in DMEM high
glucose medium supplemented with 10% FCS and 2 mM glutamine ( all, Sigma-Aldrich, St. Louis, USA,
Cat# G7513) in 5% CO2 atmosphere at 37 °C in Heracell 150i incubators (Thermo Fisher Scientific,
Waltham, USA). The human periodontal ligament (PDL -hTERT) cell line was provided by Prof. Denitsa
Docheva. During standard cell passaging accutase (Sigma-Aldrich) or 2,5x trypsin/0.5% EDTA in PBS
(Capricorn Scientific, Ebsdorfergrund, Germany) was used for cell detachment. Cell dishes in various
sizes (10 cm, 15 cm) and flasks (T75, T175) were used for cultivation (Sarstedt, Nümbrecht, Germany,
purchased from Thermo Fisher Scientific, Waltham, USA, Cat# 130184, 130188.
HEK or PDL-hTERT cells (1,5 x 10^3 cells/well) were seeded into 96 -well plates and grown for 24 h. […]
removed by suction and the formed formazan crystals dissolved in 200 μL DMSO. The read-out was
performed with an Infinite M200 Pro microplate reader (Tecan, Männedorf, Switzerland) at 570 nm
and background was subtracted at 630 nm. The absorbance values were normalized to DMSO/0.1 N […]

O=C(O)c1cn(C2CC2)c2cc(N3CCNCC3)c(F)cc2c1=O [Ciprofloxacin]
NUDT1 in vitro activity, inhibition (NUDT1): significant partial inhibition
approximate apparent IC50 (metabolic activity, MTT) [1]: well above the reported plasma concentrations
